Measured values as given in patent publication US20230321063A1, “COMPOSITIONS AND METHODS TO REDUCE NEUROINFLAMMATION” (Seattle Children's Hospital d/b/a Seattle Children's …, priority 2020, published 2023).

What was measured:
[1] = test system: CNS lesions in Ndufs4(KO) mice; experiment: Brain immunological staining: brainstem and cerebellar CNS lesions; format: in vivo, mouse; conditions: 300 mg/kg/day
Protocol: Brain immunological staining and microscopy. Brains were fixed for 48 hours in 10% formalin at 4° C. Following fixation, brains were moved to a cryoprotectant solution (30% sucrose, 1% DMSO, 100 μM glycine, 1×PBS, 0.45 μm filtered, pH 7.5), and stored for over 48 hours, until the fixed tissues sank to the bottom. Tissues were then placed in OCT media (Tissue-Tek OCT compound, Sakura 0004348-01), frozen in cryoblock holders on dry ice, and stored at −80° C. until sectioned for staining. Cryoblocks were cut at 50 μm thickness using a Leica CM30505 cryostat set at −40° C. Slices were moved to 1×PBS and stored at 4° C. until used for staining. Prior to staining, slices were mounted on slides and briefly dried to adhere.
Antibody staining was performed as follows: slides were first incubated in an antigen retrieval and permeabilization buffer (0.05% Triton X-100, 50 μM digitonin, 10 mM Tris-HCl, 1 mM EDTA, pH 9.0) at 60° C. overnight in a white-light LED illuminated box (to promote photobleaching of tissue autofluorescence). To reduce formaldehyde induced background fluorescence, slides were treated with sodium borohydride in ice cold PBS, added at 1 mg/mL immediately before incubation, on ice for 30 min, then moved to 10 mM glycine 1×PBS, pH 7.4, for 5 min at room temperature. Lipid background fluorescence was then blocked by incubating slides in 0.2 μm filtered Sudan Black B solution (5 mg/mL in 70% ethanol) overnight at room temperature. Slides were then rinsed twice, 5 min each, in 1×PBS. Excess fluid was wiped from the slide, and the tissue was circled using Liquid Blocker PAP pen (Fisher Scientific, NC9827128) to hold staining solutions. Slides were blocked for 15 min at room temperature in 1×PBS with 10% rabbit serum (Gibco, 16120-099) then stained overnight at 4° C. in a mixture of rabbit anti-IBA1-fluorochrome 635 conjugated (WAKO 013-26471) at 1:300, mouse anti-GFAP, Alexa555 conjugated (Cell Signaling, 3656S) at 1:300, and DAPI (Sigma, D9542) at 1 μg/mL. […]

Ndufs4(KO) mice = experiment: Minimum Alveolar Concentration (MAC) of isoflurane associated with anesthesia; format: in vivo, mouse; conditions: 300 mg/kg/day, P30 Ndufs4(KO) animals
From the text: In particular embodiments, effective amounts can be evidenced by reduced sensitivity to volatile anesthetics. Sensitivity to volatile anesthetics can be determined by measuring the minimum alveolar concentration (MAC). MAC provides a correlation between the dose of an anesthetic and immobility. (Lobo et al. (2020) StatPearls, World Wide Web at ncbi.nlm.nih.gov/books/NBK532974/). […] MAC can be expressed as volumes percent of alveolar (end-tidal) gas at one atmosphere pressure at sea level (i.e., 760 mm Hg). In particular embodiments, volatile anesthetics can include nitrous oxide, isoflurane, desflurane, halothane, and sevoflurane. Mice can be exposed to an anesthetic by using a vaporizer at a particular flow rate (e.g., 3-4 liters/min) through a humidifier in-line. […] In particular embodiments, sensitivity to volatile anesthetics can be reduced in a subject administered a composition including a therapeutically effective amount of an inhibitor of the disclosure, as compared to sensitivity to volatile anesthetics in the subject not administered the composition, as measured by a relevant test such as MAC.
To test whether leukocyte depletion might impact VA hypersensitivity, the Minimum Alveolar Concentration (MAC) of isoflurane associated with anesthesia in control and 300 mg/kg/day pexidartinib treated Ndufs4(KO) animals was assessed (see Experimental Methods in Example 1 for details). […]

[2] = test system: Ndufs4(KO) mouse model of LS; experiment: Survival studies and overall disease course in Ndufs4(KO) mice; format: in vivo
Protocol: Ndufs4(+/−) mice were bred to produce Ndufs4(KO) (Ndufs4(−/−)) offspring. Mice were weaned at 20-21 days of age. Ndufs4(KO) animals were housed with a minimum of one control littermate for warmth and stimulation. Mice were weighed, and health assessed, a minimum of 3 times per week, every other day (daily for IP injected mice, see herein). Where longitudinal blood point-of-care data was collected, this was performed during these health checks. Wetted chow in a dish on the bottom of each cage, and in-cage water bottles, were provided to all cages housing Ndufs4(KO) mice following the onset of disease so that the ability to find or reach food or water was not a limiting factor for survival.
Doses of each drug was based on published data for use in animals. […] Blood and tissue concentrations reached biologically relevant levels for each of the tested inhibitors.
Pharmacologic interventions and chow formulation. Standard mouse chow was ground to a power and mixed with drugs at the doses desired (see FIGS. 4A-4L). 300 mL of 1% agar melted in sterile water was added per kilogram of powdered chow and the mixture was pelleted and baked at 37° C. for 3-5 hours to dry. Pellets were then stored at 4° C. for short term (up to 90 days) or −20° C. for long-term (up to 6 months) storage. It was previously shown that this processing had no impact on animal health or survival (Johnson et al. Front Genet. 2015; 6:247). […]
To determine whether the benefits of mTOR inhibition in Ndufs4(KO) model result from disruption of PI3K mediated signaling, animals were treated from weaning (post-natal day 21, P21) with potent, orally available, isoform specific inhibitors of the catalytic subunits of PI3K: BYL719, GSK2636771, CAL-101, and IPI-549, inhibitors of p110α, p110β, p110δ, and p110γ, respectively.

## FC(F)(F)c1ccc(CNc2ccc(Cc3c[nH]c4ncc(Cl)cc34)cn2)cn1 [pexidartinib, 5-[(5-chloro-1H-pyrrolo[2,3-b]pyridin-3-yl)methyl]-N-[[6-(trifluoromethyl)pyridin-3-yl]methyl]pyridin-2-amine]
[1]
  gliosis (microgliosis and astrocytosis) at CNS lesion sites: completely prevented
[1]; immunohistochemistry
  brainstem CNS lesions: complete (as detected by immunohistochemistry) prevention
  cerebellar CNS lesions: complete (as detected by immunohistochemistry) prevention
Ndufs4(KO) mice
  hypersensitivity to sedation by isoflurane (MAC): modest, but statistically significant, attenuation
[2]; 300 mg/kg/d, drug toxicity appears to limit lifespan
  lifespan of treated Ndufs4(KO) animals relative to treated control mice: live as long as treated control mice
[2]; Ndufs4(KO) mice
  impact on disease (overall) / disease or survival: dramatically attenuates disease
[2]; Ndufs4(KO) mice vs untreated
  survival: dramatically extended survival
[2]; Ndufs4(KO) mice, 300 mg/kg/day in chow
  extension of median survival: 300%
[2]; control animals on 300 mg/kg/d
  cause of death of control animals: died of unknown causes with no evident illness
[2]; each of 100-300 mg/kg/day, dose-dependent
  survival compared to untreated Ndufs4(KO) mice: statistically significant increase
[2]; majority of high dose animals
  overt signs of severe neurologic sequelae prior to death: did not show overt signs of severe neurologic sequelae prior to death
